From patent US20260070929A1, “METHODS AND COMPOSITIONS FOR MODULATING KRAS(G12D)” (Ranok Therapeutics (Hangzhou) Co. LTD., priority 2022, published 2026) come the findings set out here.

For test [1], the target named is T1, KRAS(G12D)/SOS1 (Homo sapiens, UniProt P01116, G12D).
T1 construct: purchased Cisbio 63ADK000CB17PEH
The test can be described thus: KRAS(G12D)/SOS1 homogeneous time-resolved fluorescence (HTRF) assay. The format is binding. Conditions: absence of GTP; 4° C., 3 hr. A digest of the protocol:
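Disruption of the KRAS(G12D)/SOS1 pairing, in the absence of GTP, was read by time-resolved FRET after a 3 hr sealed incubation at 4 °C. Test compounds spanned 20 µM down to 1.02 nM in 3-fold steps. IC50 values correspond to half-maximal inhibition.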
Background: TR-FRET usually uses a lanthanide donor and a delayed reading to cut background.

Test [2] has as its system AGS gastric carcinoma cells [heterozygous G12D]. The test can be described thus: Cancer cell line proliferation (CellTiter-Glo), AGS. The test is classed as cell-based. The following applies: 72 hr treatment, read-out: AGS CTG (EC50). The gist of the method: (§1)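 A 72 hr proliferation format is used: cells at 4,000/well, pre-grown 72 hr, then treated at 37° C./5% CO2 with 0.5% DMSO final. CellTiter-Glo measures viable cells, from which EC50 is calculated.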

In test [3] the test system is A-427 lung carcinoma cells [heterozygous G12D]. The test can be described thus: Cancer cell line proliferation (CellTiter-Glo), A-427. The following applies: A-427 cells, 72 hr treatment, read-out: A427 CTG (EC50). The format is cell-based. A digest of the protocol: as §1
The subject of test [4] is ASPC1 pancreatic adenocarcinoma cells [homozygous G12D]. The test can be described thus: Cancer cell line proliferation (CellTiter-Glo), ASPC1. The test is classed as cell-based. The following applies: 72 hr treatment, read-out: ASPC-1 CTG (EC50). The gist of the method: as §1
(In ATP-based viability assays light output follows the ATP content of the culture.)

In test [5] the test system is SW1990 pancreatic adenocarcinoma cells [homozygous G12D]. The test can be described thus: Cancer cell line proliferation (CellTiter-Glo), SW1990. The format is cell-based. Conditions: Homo sapiens, 72 hr treatment, read-out: SW1990 CTG (EC50). The gist of the method: as §1

Structures are written as SMILES. Read-outs that look alike come from different tables or passages of the source.

T1 sequence (P01116 1-188 isoform P01116-2 G12D): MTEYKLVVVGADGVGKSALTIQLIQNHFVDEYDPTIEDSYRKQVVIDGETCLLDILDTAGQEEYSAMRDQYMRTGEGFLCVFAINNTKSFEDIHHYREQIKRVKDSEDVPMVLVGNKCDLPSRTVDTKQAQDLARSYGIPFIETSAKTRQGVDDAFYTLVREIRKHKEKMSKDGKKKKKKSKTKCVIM

For `C#Cc1cccc2cc(O)cc(-c3ncc4c(N5CC6CCC(C5)N6)nc(OCC5(CN6CCN(Cc7ccc(-n8c(C(=O)NC(C)C(F)(F)F)nnc8-c8cc(C(C)C)c(O)cc8O)cc7)CC6)CC5)nc4c3F)c12` (stereo not drawn) [Compound 155], the IC50 in test [1] is less than 100 nM. Further, the EC50 in test [2] (Homo sapiens) was in the range of 100 to 1000 nM; in test [3] (Homo sapiens), 100 to 1000 nM; in test [4] (Homo sapiens, ASPC1, 72 h), 100 to 1000 nM; in test [5], 100 to 1000 nM.

Turning to `C#Cc1c(F)ccc2cc(O)cc(-c3nc(OC)c4c(N5CC6CCC(C5)N6)nc(OCC5(CN6CCN(CC7CCN(Cc8ccc9c(c8)CN(C(=O)c8cc(C(C)C)c(O)cc8O)C9)CC7)CC6)CC5)nc4c3F)c12` [Compound 156], the 50% inhibitory concentration (IC50) in test [1] was less than 100 nM. The EC50 is less than 100 nM in test [2] (Homo sapiens); 100 to 1000 nM in test [3] (Homo sapiens); less than 100 nM in test [4] (Homo sapiens, ASPC1, 72 h); less than 100 nM in test [5].

As to `C#Cc1cccc2cc(O)cc(-c3ncc4c(N5CC6CCC(C5)N6)nc(OCC5(CN6CCN(C(=O)C7CCN(Cc8ccc9c(c8)CN(C(=O)c8cc(C(C)C)c(O)cc8O)C9)CC7)CC6)CC5)nc4c3F)c12` [Compound 157], in test [1], the IC50 was less than 100 nM. For the same compound, the EC50 in test [2] (Homo sapiens) was less than 100 nM; in test [3] (Homo sapiens) it was 100 to 1000 nM; in test [4] (Homo sapiens, ASPC1, 72 h), 100 to 1000 nM; in test [5] it was 100 to 1000 nM.

In the case of `C#Cc1c(F)ccc2cc(O)cc(-c3nc(OC)c4c(N5CC6CCC(C5)N6)nc(OCC5(CN6CCN(CC7CCN(Cc8ccc(-n9c(C(=O)NC(C)C(F)(F)F)nnc9-c9cc(C(C)C)c(O)cc9O)cc8)CC7)CC6)CC5)nc4c3F)c12` (stereo not drawn) [Compound 158], in test [1], the IC50 is less than 100 nM. Besides, the EC50 is less than 100 nM in test [2] (Homo sapiens); less than 100 nM in test [3] (Homo sapiens); less than 100 nM in test [4] (Homo sapiens, ASPC1, 72 h); less than 100 nM in test [5].

`CC(C)c1cc(C(=O)N2Cc3ccc(CN4CCC(CN5CCN(CC6(COc7nc(N8CC9CCC(C8)N9)c8cnc(-c9cc(O)cc%10ccccc9%10)c(F)c8n7)CC6)CC5)CC4)cc3C2)c(O)cc1O` [Compound 159] displayed an IC50 in test [1] of less than 100 nM. In addition, the EC50 in test [2] (Homo sapiens) lay within 100 to 1000 nM; in test [3] (Homo sapiens), 100 to 1000 nM; in test [4] (Homo sapiens, ASPC1, 72 h), 100 to 1000 nM; in test [5], 100 to 1000 nM.

With `C#Cc1c(F)ccc2cc(O)cc(-c3ncc4c(N5CC6CCC(C5)N6)nc(CCC5(CN6CCN(C7CCN(Cc8ccc9c(c8)CN(C(=O)c8cc(C(C)C)c(O)cc8O)C9)CC7)CC6)CC5)nc4c3F)c12` [Compound 161], the IC50 in test [1] was less than 100 nM. Moreover, the EC50 in test [2] (Homo sapiens) was less than 100 nM; in test [3] (Homo sapiens), 100 to 1000 nM; in test [4] (Homo sapiens, ASPC1, 72 h), 100 to 1000 nM; in test [5] it was less than 100 nM.

`C#Cc1c(F)ccc2cc(O)cc(-c3ncc4c(N5CC6CCC(C5)N6)nc(OCC5(CN6CCC(C7CCN(Cc8ccc(-n9c(C(=O)NC(C)C(F)(F)F)nnc9-c9cc(C(C)C)c(O)cc9O)cc8)CC7)CC6)CC5)nc4c3F)c12` (stereo not drawn) [Compound 162] gave an IC50 in test [1] of less than 100 nM. The EC50 in test [2] (Homo sapiens) is less than 100 nM; in test [3] (Homo sapiens), less than 100 nM; in test [4] (Homo sapiens, ASPC1, 72 h) it was less than 100 nM; in test [5], less than 100 nM.

The compound `C#Cc1c(F)ccc2cc(O)cc(-c3ncc4c(N5CC6CCC(C5)N6)nc(OCC5(CN6CCC(C7CCN(Cc8ccc9c(c8)CN(C(=O)c8cc(C(C)C)c(O)cc8O)C9)CC7)CC6)CC5)nc4c3F)c12` [Compound 163] came in with an IC50 in test [1] of less than 100 nM. The EC50 in test [2] (Homo sapiens) is less than 100 nM; in test [3] (Homo sapiens), 100 to 1000 nM; in test [4] (Homo sapiens, ASPC1, 72 h), 100 to 1000 nM; in test [5] it was less than 100 nM.

`Cc1cccc2cccc(-c3ncc4c(N5CC6CCC(C5)N6)nc(OC[C@@H]5C[C@H](N6CCN(Cc7ccc8c(c7)CN(C(=O)c7cc(C(C)C)c(O)cc7O)C8)CC6)CN5C)nc4c3F)c12` [Example 1]: in test [1], the IC50 was 100 to 1000 nM. For the same compound, the EC50 in test [2], in test [3], in test [4] and in test [5] was 100 to 1000 nM throughout.

In general, IC50 refers to the point on the concentration scale where inhibition reaches its midpoint. Read a low IC50 as higher potency. Usually EC50 stands for the concentration needed to bring the measured effect to its halfway point.
